In brackets after ≈: the same amount, converted by molar mass. Read-outs that look alike come from different tables or passages of the source.
Tests used:
Helicobacter pylori [1] = test: Viability of H. pylori after 1 hour with FFA or MG in Brucella broth (plate count, Example 1, Table 1); format: cell-based; details: for Effect on test strains of H. pylori: up to 5 mM, three strains; for Reduction in number of viable H. pylori cells (CFU/mL): 1 hour, 37° C.; for Reductions in cell numbers: test strains HP-2, HP-4, HP-5, 1 hour incubation
Helicobacter pylori [2] = test: Viability of H. pylori after 1 hour in prototype nutritional compositions containing FFA or MG (Example 3, Table 6); format: cell-based, Helicobacter pylori (ATCC 43629); details: for Change in viable cell number: 1 hour; for Inhibition in nutritional compositions: levels as high as 20 mM; for Reductions in viability of H. pylori: 10 mM for 1 hour
Helicobacter pylori [3] = test: Minimal inhibitory concentration (MIC) for H. pylori (Example 5); format: cell-based
Helicobacter pylori [4] = format: cell-based, Helicobacter pylori (HP-2, HP-4, HP-5); details: for Frequency of resistance / Resistant variants of H. pylori: concentrations as low as two times the MIC; for Frequency of resistant mutants (number of spontaneous mutants): ~1 × 10^8 CFU; for Frequency of innate resistance compared with MG and FFA: H. pylori strains, Table 7
Helicobacter felis = test: H. felis infected mouse model (urease activity and histology of gastric tissue); format: in vivo, Helicobacter felis in adult mice
From the text: The restricted host range of Helicobacter pylori has hampered the development of a widely accepted animal model of H. pylori infection. […] Other animal models of Helicobacter infection have been described based on bacteria similar to H. pylori that have been found in the gastric mucosa of various animals such as the ferret, cat, and monkey. One such model involves the inoculation of adult mice with Heicobacter felis (Fox, J. G., J. C. Murphy, N. S. Taylor, A. Lee, Z. Kabob, and L. Pappo., Local and systemic immune responses in murine Helicobacter felis active chronic gastritis., Infect. Immun. 1993; 61:2309-2315; Dick-Hegedus, E., and A. Lee. Use of a mouse model to examine anti-Helicobacter pylori agents., Scand. J. Gastroenterol. 1991;26:909-915). Preliminary studies were conducted to evaluate the anti-infective activity of MG and FFA against Helicobacter infection in vivo using the H. felis infected mouse model. […] Two weeks later mice were randomized into treatment groups and maintained on liquid diet alone or the same diet supplemented with C10:0 MG or C12:0 MG at a level of 1,5, or 10 mM. Gastric colonization with H. felis in mice was determined 1 and 3 weeks later by evaluation of urease activity ([…]. Barody, A. Gal, and A. Lee., Campylobacter pyloridis gastritis I: Detection of urease as a marker of bacterial colonization and gastritis. Am. J. Gastroenterol. 1987; 82: 292-296) and histopathological assessment of bacterial infection in gastric tissues.

H. pylori = details: reported in literature; cited from earlier work
[5] = Nutrament (Formulation II), 20 mM
[6] = Sustacal (Formulation I), 10 mM
[7] = Sustacal (Formulation I), 20 mM
[8] = Ultracal (Formulation III), 5 mM
[9] = Ultracal (Formulation III), 10 mM
[10] = Ultracal (Formulation III), 20 mM
[11] = Nutrament (Formulation II), 5 mM
[12] = Nutrament (Formulation II), 10 mM
[13] = Helicobacter pylori, Table 7, read-out: MIC

Structure (SMILES)	Change in viable cell number (Helicobacter pylori [2]; Sustacal (Formulation I), 5 mM)	Change in viable cell number (Helicobacter pylori [2]; [6])	Change in viable cell number (Helicobacter pylori [2]; [8])	Change in viable cell number (Helicobacter pylori [2]; [9])	Change in viable cell number (Helicobacter pylori [2]; [10])	Reductions in cell numbers (Helicobacter pylori [1])	Reductions in viability of H. pylori (Helicobacter pylori [2])	Change in viable cell number (Helicobacter pylori [2]; [11])	Change in viable cell number (Helicobacter pylori [2]; [12])	Frequency of resistant mutants (number of spontaneous mutants) (Helicobacter pylori [4]; strain 43579, 2 × MIC)	Frequency of resistant mutants (number of spontaneous mutants) (Helicobacter pylori [4]; strain 43579, 5 × MIC)	Frequency of resistant mutants (number of spontaneous mutants) (Helicobacter pylori [4]; strain 43579, 10 × MIC)	Frequency of resistant mutants (number of spontaneous mutants) (Helicobacter pylori [4]; strain 43629, 2 × MIC)	Frequency of resistant mutants (number of spontaneous mutants) (Helicobacter pylori [4]; strain 43629, 5 × MIC)	Frequency of resistant mutants (number of spontaneous mutants) (Helicobacter pylori [4]; strain 43629, 10 × MIC)	Frequency of resistant mutants (number of spontaneous mutants) (Helicobacter pylori [4]; strain 49503, 2 × MIC)	Frequency of resistant mutants (number of spontaneous mutants) (Helicobacter pylori [4]; strain 49503, 5 × MIC)	Frequency of resistant mutants (number of spontaneous mutants) (Helicobacter pylori [4]; strain 49503, 10 × MIC)	also measured
CCCCCCCCCC(=O)O [Capric Acid, capric acid, reference compound]	0.00 LOG CFU/mL	0.00 LOG CFU/mL	0.03 LOG CFU/mL	-0.03 LOG CFU/mL	-0.33 LOG CFU/mL	–	–	–	–	–	–	–	–	–	–	–	–	–	Effect on test strains of H. pylori (Helicobacter pylori [1]): None of the test strains of H. pylori were affected; Change in viable cell number (Helicobacter pylori [2]; [5]): -0.08 LOG CFU/mL; Change in viable cell number (Helicobacter pylori [2]; [7]): -0.09 LOG CFU/mL; Inhibition in nutritional compositions (Helicobacter pylori [2]): not inhibitory
CCCCCCCC(=O)O [Caprylic Acid, caprylic acid, reference compound]	0.00 LOG CFU/mL	0.00 LOG CFU/mL	0.06 LOG CFU/mL	-0.20 LOG CFU/mL	-0.81 LOG CFU/mL	–	–	–	–	–	–	–	–	–	–	–	–	–	Effect on test strains of H. pylori (Helicobacter pylori [1]): None of the test strains of H. pylori were affected; Change in viable cell number (Helicobacter pylori [2]; [5]): -0.21 LOG CFU/mL; Change in viable cell number (Helicobacter pylori [2]; [7]): 0.02 LOG CFU/mL; Inhibition in nutritional compositions (Helicobacter pylori [2]): not inhibitory
CCCCCCCCCC(=O)OCC(O)CO (centres unmarked) [Monocaprin, monocaprin]	-3.78 LOG CFU/mL	-3.91 LOG CFU/mL	-4.40 LOG CFU/mL	-4.40 LOG CFU/mL	–	≥ 10,000 fold	≥ 1000 fold	-4.00 LOG CFU/mL	-4.14 LOG CFU/mL	< 1	< 1	< 1	< 1	< 1	< 1	< 1	< 1	< 1	Reduction in number of viable H. pylori cells (CFU/mL) (Helicobacter pylori [1]; ATCC #43579, 1 mM): > 100,000 fold; Reduction in number of viable H. pylori cells (CFU/mL) (Helicobacter pylori [1]; ATCC #43629, 1 mM): > 60,000 fold; Reduction in number of viable H. pylori cells (CFU/mL) (Helicobacter pylori [1]; ATCC #49503, 1 mM): > 30,000 fold; MIC (Helicobacter pylori [3]; Table 7): 60.0 µg/mL (≈ 244 µM); MIC (Helicobacter pylori [3]; preliminary studies): approximately 60 mg/L; Frequency of resistance (Helicobacter pylori [4]): < 1×10^-8; Resistant variants of H. pylori (Helicobacter pylori [4]): no resistant variants of H. pylori were found; Histology score (Helicobacter felis; 10 mM in diet, three weeks): remained lower; Numbers of urease positive and histology positive mice (Helicobacter felis; diet, three weeks after initiation of treatment): comparable to the number observed in the infected control group (~80-100%); Number of urease and histology positive mice (Helicobacter felis; liquid diet with MG at 1, 5 or 10 mM, 1 week of treatment): dose-related reductions in the number of urease and histology positive mice; Reduction in H. felis infection (Helicobacter felis; second study, daily intragastric gavage 1.4 or 2.8 mg/day, 1 or 3 weeks): no significant reduction in H. felis infection; Level of infection (histology score) (Helicobacter felis; urease positive mice vs control, diet, 1 week): Lower levels of infection
CCCCCCCC(=O)OCC(O)CO (centres unmarked) [Monocaprylin, monocaprylin]	0.37 LOG CFU/mL	-3.44 LOG CFU/mL	0.00 LOG CFU/mL	-3.64 LOG CFU/mL	-4.46 LOG CFU/mL	≥ 1000 fold	≥ 1000 fold	-4.23 LOG CFU/mL	-4.23 LOG CFU/mL	–	–	–	–	–	–	–	–	–	Reduction in number of viable H. pylori cells (CFU/mL) (Helicobacter pylori [1]; ATCC #43579, 5 mM): > 4,000 fold; Reduction in number of viable H. pylori cells (CFU/mL) (Helicobacter pylori [1]; ATCC #43629, 5 mM): > 3,000 fold; Reduction in number of viable H. pylori cells (CFU/mL) (Helicobacter pylori [1]; ATCC #49503, 5 mM): > 40,000 fold
CCCCCCCCCCCC(=O)OCC(O)CO (centres unmarked) [Monolaurin, monolaurin]	-3.41 LOG CFU/mL	-3.77 LOG CFU/mL	-3.04 LOG CFU/mL	-4.40 LOG CFU/mL	–	≥ 10,000 fold	≥ 1000 fold	-4.23 LOG CFU/mL	-3.87 LOG CFU/mL	< 1	< 1	< 1	< 1	< 1	< 1	< 1	< 1	< 1	Reduction in number of viable H. pylori cells (CFU/mL) (Helicobacter pylori [1]; ATCC #43579, 1 mM): > 100,000 fold; Reduction in number of viable H. pylori cells (CFU/mL) (Helicobacter pylori [1]; ATCC #43629, 1 mM): > 50,000 fold; Reduction in number of viable H. pylori cells (CFU/mL) (Helicobacter pylori [1]; ATCC #49503, 1 mM): > 30,000 fold; MIC (Helicobacter pylori [3]; Table 7): 15.0 µg/mL (≈ 54.7 µM); MIC (Helicobacter pylori [3]; preliminary studies): ~15 µg/mL (≈ 54.7 µM); Frequency of resistance (Helicobacter pylori [4]): < 1×10^-8; Resistant variants of H. pylori (Helicobacter pylori [4]): no resistant variants of H. pylori were found
CCCCC/C=C\C/C=C\C/C=C\C/C=C\CCCC(=O)O [arachidonic acid]	–	–	–	–	–	–	–	–	–	–	–	–	–	–	–	–	–	–	Inhibitory effect on H. pylori (H. pylori): inhibitory effect on H. pylori
Cc1ncc([N+](=O)[O-])n1CCO [metronidazole, reference compound]	–	–	–	–	–	–	–	–	–	–	–	–	791	< 1	< 1	> 1000	48	< 1	MIC (Helicobacter pylori [3]; [13]): 2 µg/mL (≈ 11.7 µM); Frequency of innate resistance compared with MG and FFA (Helicobacter pylori [4]): consistently higher; Frequency of resistant mutants (number of spontaneous mutants) (Helicobacter pylori [4]; strain 43679 (so in the source), 2 × MIC): > 1000; Frequency of resistant mutants (number of spontaneous mutants) (Helicobacter pylori [4]; strain 43679 (so in the source), 5 × MIC): 862; Frequency of resistant mutants (number of spontaneous mutants) (Helicobacter pylori [4]; strain 43679 (so in the source), 10 × MIC): 518
CN(C)C1C(=O)C(C(N)=O)=C(O)C2(O)C(=O)C3=C(O)c4c(O)cccc4C(C)(O)C3CC12 (centres unmarked) [tetracycline, reference compound]	–	–	–	–	–	–	–	–	–	TNTC	TNTC	< 1	> 1000	242	< 1	148	< 1	< 1	MIC (Helicobacter pylori [3]; [13]): 0.1 µg/mL (≈ 0.225 µM); Frequency of innate resistance compared with MG and FFA (Helicobacter pylori [4]): consistently higher
CC/C=C\C/C=C\C/C=C\CCCCCCCC(=O)O [ω-3 linolenic acid]	–	–	–	–	–	–	–	–	–	–	–	–	–	–	–	–	–	–	Inhibitory effect on H. pylori (H. pylori): inhibitory effect on H. pylori

— patent US5660842A, “Inhibition of helicobacter” (Bristol-Myers Squibb Company, priority 1995, dated 1997)
